From patent US20110130380A1, “Heteroaryl Kinase Inhibitors” (priority 2009, published 2011)

These compounds were tested against Cdk9/cyclinT1 (Homo sapiens, UniProt P50750) (assay: Cdk9/cyclinT1 IMAP Protocol (fluorescence polarization kinase assay)). Conditions: Cdk9_cyclinT1_IC50, Table V; generated using one of the two Cdk9/cyclinT1 assays (IMAP or Alpha Screen), not stated which; ATP 6 uM.
Sequence of Cdk9/cyclinT1 (P50750 whole entry): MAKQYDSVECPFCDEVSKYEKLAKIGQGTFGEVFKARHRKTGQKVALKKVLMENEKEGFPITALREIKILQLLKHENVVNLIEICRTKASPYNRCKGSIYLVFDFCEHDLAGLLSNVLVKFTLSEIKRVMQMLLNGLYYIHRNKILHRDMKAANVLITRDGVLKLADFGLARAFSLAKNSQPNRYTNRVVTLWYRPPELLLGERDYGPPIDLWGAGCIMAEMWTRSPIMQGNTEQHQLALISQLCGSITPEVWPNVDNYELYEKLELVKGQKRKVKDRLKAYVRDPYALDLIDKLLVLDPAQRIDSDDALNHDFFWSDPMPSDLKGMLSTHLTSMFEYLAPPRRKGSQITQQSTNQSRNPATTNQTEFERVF
Sequence of Cdk9/cyclinT1 (O60563 whole entry partner): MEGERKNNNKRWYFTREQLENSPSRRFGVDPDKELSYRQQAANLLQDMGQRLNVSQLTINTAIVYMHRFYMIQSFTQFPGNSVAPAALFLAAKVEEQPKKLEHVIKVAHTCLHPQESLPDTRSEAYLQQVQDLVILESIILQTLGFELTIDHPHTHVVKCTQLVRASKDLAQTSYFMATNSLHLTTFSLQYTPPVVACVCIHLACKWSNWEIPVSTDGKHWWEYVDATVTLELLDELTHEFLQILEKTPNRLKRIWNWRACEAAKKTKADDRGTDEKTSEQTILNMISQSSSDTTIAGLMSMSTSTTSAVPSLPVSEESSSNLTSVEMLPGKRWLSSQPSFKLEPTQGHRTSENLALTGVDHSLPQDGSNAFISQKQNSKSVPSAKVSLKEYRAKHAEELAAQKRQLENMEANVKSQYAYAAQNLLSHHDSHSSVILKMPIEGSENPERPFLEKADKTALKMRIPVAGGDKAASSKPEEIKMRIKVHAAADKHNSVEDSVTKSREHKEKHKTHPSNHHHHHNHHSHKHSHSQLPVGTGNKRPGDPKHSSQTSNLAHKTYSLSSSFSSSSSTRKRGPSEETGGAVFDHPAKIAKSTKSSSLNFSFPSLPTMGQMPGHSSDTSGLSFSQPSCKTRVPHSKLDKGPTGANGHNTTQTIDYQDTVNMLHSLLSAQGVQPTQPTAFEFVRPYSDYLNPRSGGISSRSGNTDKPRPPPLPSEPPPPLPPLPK

**Q.** With `CC1(CNc2cccc(-c3cc(NC(=O)[C@@H]4CCCNC4)ncc3Cl)n2)CCOCC1` [Example 207, (R)-Piperidine-3-carboxylic acid {5′-chloro-6-[(4-methyl-tetrahydro-pyran-4-ylmethyl)-amino]-[2,4′]bipyridinyl-2′-yl}-amide] as the compound, how does the IC50 read?
**A.** 1 nM

**Q.** `CC1(CNc2nc(-c3cc(NC(=O)[C@@H]4CCCNC4)ncc3Cl)ccc2F)CCOCC1` [Example 208, (R)-Piperidine-3-carboxylic acid {5′-chloro-5-fluoro-6-[(4-methyl-tetrahydro-pyran-4-ylmethyl)-amino]-[2,4′]bipyridinyl-2′-yl}-amide] was tested. Which IC50 did it give?
**A.** 1 nM

**Q.** With `CCC1(CNc2nc(-c3cc(NC(=O)[C@@H]4CCCNC4)ncc3Cl)ccc2F)CCOCC1` [Example 209, (R)-Piperidine-3-carboxylic acid {5′-chloro-6-[(4-ethyl-tetrahydro-pyran-4-ylmethyl)-amino]-5-fluoro-[2,4′]bipyridinyl-2′-yl}-amide] as the compound, how does the IC50 read?
**A.** 1 nM

**Q.** With `CC1(C)CCC(C(=O)Nc2cc(-c3ccc(F)c(NCC4CCOCC4)n3)c(Cl)cn2)CN1` (stereo not shown) [Example 210, 6,6-Dimethyl-piperidine-3-carboxylic acid {5′-chloro-5-fluoro-6-[(tetrahydro-pyran-4-ylmethyl)-amino]-[2,4′]bipyridinyl-2′-yl}-amide] as the compound, how does the IC50 read?
**A.** 1 nM

**Q.** For `O=C(Nc1cc(-c2ccc(C(F)(F)F)c(NCC3CCOCC3)n2)c(Cl)cn1)[C@@H]1CCCNC1` [Example 217, (R)-Piperidine-3-carboxylic acid {5′-chloro-6-[(tetrahydro-pyran-4-ylmethyl)-amino]-5-trifluoromethyl-[2,4′]bipyridinyl-2′-yl}-amide], which IC50 is on record?
**A.** 4 nM

**Q.** How did the IC50 turn out when `CC1(C)COC(CNc2cccc(-c3cc(NC(=O)[C@@H]4CCCNC4)ncc3Cl)n2)CO1` (stereo partly drawn) [Example 218, (R)-Piperidine-3-carboxylic acid {5′-chloro-6-[(5,5-dimethyl-[1,4]dioxan-2-ylmethyl)-amino]-[2,4′]bipyridinyl-2′-yl}-amide] was run?
**A.** 1 nM

**Q.** How did the IC50 turn out when `CC1(C)COCC(CNc2cccc(-c3cc(NC(=O)[C@@H]4CCCNC4)ncc3Cl)n2)O1` (stereo partly drawn) [Example 219, (R)-Piperidine-3-carboxylic acid {5′-chloro-6-[(6,6-dimethyl-[1,4]dioxan-2-ylmethyl)-amino]-[2,4′]bipyridinyl-2′-yl}-amide] was run?
**A.** 1 nM

**Q.** `O=C(Nc1cc(-c2cccc(NCC3(F)CCOCC3)n2)c(Cl)cn1)[C@@H]1CCCNC1` [Example 237, (R)-Piperidine-3-carboxylic acid {5′-chloro-6-[(4-fluoro-tetrahydro-pyran-4-ylmethyl)-amino]-[2,4′]bipyridinyl-2′-yl}-amide] was tested. Which IC50 did it give?
**A.** 1 nM

**Q.** `N#CC1(CNc2cccc(-c3cc(NC(=O)[C@@H]4CCCNC4)ncc3Cl)n2)CCOCC1` [Example 238, (R)-Piperidine-3-carboxylic acid {5′-chloro-6-[(4-cyano-tetrahydro-pyran-4-ylmethyl)-amino]-[2,4′]bipyridinyl-2′-yl}-amide] was tested. Which IC50 did it give?
**A.** 1 nM

**Q.** With `COC[C@@H]1C[C@@H](C(=O)Nc2cc(-c3cccc(NCC4(C)CCOCC4)n3)c(Cl)cn2)CN1` [Example 239, (3R,5S)-5-Methoxymethyl-pyrrolidine-3-carboxylic acid {5′-chloro-6-[(4-methyl-tetrahydro-pyran-4-ylmethyl)-amino]-[2,4′]bipyridinyl-2′-yl}-amide] as the compound, how does the IC50 read?
**A.** 1 nM

**Q.** For `COC[C@H]1C[C@@H](C(=O)Nc2cc(-c3cccc(NCC4(C)CCOCC4)n3)c(Cl)cn2)CN1` [Example 246, (3R,5R)-5-Methoxymethyl-pyrrolidine-3-carboxylic acid {5′-chloro-6-[(4-methyl-tetrahydro-pyran-4-ylmethyl)-amino]-[2,4′]bipyridinyl-2′-yl}-amide], which IC50 is on record?
**A.** 6 nM

**Q.** Which IC50 does the source give for `CC[C@H]1CC[C@@H](C(=O)Nc2cc(-c3cccc(NCC4CCOCC4)n3)c(Cl)cn2)CN1` [Example 247, (3R,6S)-6-Ethyl-piperidine-3-carboxylic acid {5′-chloro-6-[(tetrahydro-pyran-4-ylmethyl)-amino]-[2,4′]bipyridinyl-2′-yl}-amide] here?
**A.** 7 nM

**Q.** How did the IC50 turn out when `COC1(CNc2nc(-c3cc(NC(=O)[C@@H]4CCCNC4)ncc3Cl)ccc2F)CCOCC1` [Example 248, (R)-Piperidine-3-carboxylic acid {5′-chloro-5-fluoro-6-[(4-methoxy-tetrahydro-pyran-4-ylmethyl)-amino]-[2,4′]bipyridinyl-2′-yl}-amide] was run?
**A.** 3 nM

**Q.** `CC(C)O[C@H]1CNC[C@@H]1C(=O)Nc1cc(-c2cccc(NCC3(C)CCOCC3)n2)c(Cl)cn1` [Example 249, (3S,4R)-4-Isopropoxy-pyrrolidine-3-carboxylic acid {5′-chloro-6-[(4-methyl-tetrahydro-pyran-4-ylmethyl)-amino]-[2,4′]bipyridinyl-2′-yl}-amide] was tested. Which IC50 did it give?
**A.** 9 nM

**Q.** For `COC[C@@H]1C[C@@H](C(=O)Nc2cc(-c3ccc(F)c(NCC4(OC)CCOCC4)n3)c(Cl)cn2)CN1` [Example 253, (3R,5S)-5-Methoxymethyl-pyrrolidine-3-carboxylic acid {5′-chloro-5-fluoro-6-[(4-methoxy-tetrahydro-pyran-4-ylmethyl)-amino]-[2,4′]bipyridinyl-2′-yl}-amide], which IC50 is on record?
**A.** 1 nM

**Q.** With `CC1(C)COCC(CNc2nc(-c3cc(NC(=O)[C@@H]4CCCNC4)ncc3Cl)ccc2F)O1` (stereo partly drawn) [Example 254, (R)-Piperidine-3-carboxylic acid {5′-chloro-6-[(6,6-dimethyl-[1,4]dioxan-2-ylmethyl)-amino]-5-fluoro-[2,4′]bipyridinyl-2′-yl}-amide] as the compound, how does the IC50 read?
**A.** 1 nM

**Q.** How did the IC50 turn out when `CC1(C)COC(CNc2nc(-c3cc(NC(=O)[C@@H]4CCCNC4)ncc3Cl)ccc2F)CO1` (stereo partly drawn) [Example 255, (R)-Piperidine-3-carboxylic acid {5′-chloro-6-[(5,5-dimethyl-[1,4]dioxan-2-ylmethyl)-amino]-5-fluoro-[2,4′]bipyridinyl-2′-yl}-amide] was run?
**A.** 1 nM

**Q.** `COCCOC[C@@H]1C[C@@H](C(=O)Nc2cc(-c3cccc(NCC4(C)CCOCC4)n3)c(Cl)cn2)CN1` [Example 258, (3R,5S)-5-(2-Methoxy-ethoxymethyl)-pyrrolidine-3-carboxylic acid {5′-chloro-6-[(4-methyl-tetrahydro-pyran-4-ylmethyl)-amino]-[2,4′]bipyridinyl-2′-yl}-amide] was tested. Which IC50 did it give?
**A.** 2 nM

**Q.** With `CC1(C)C[C@H](CNc2cccc(-c3cc(NC(=O)[C@@H]4CCNC4)ncc3Cl)n2)CCO1` [Example 259, (R)-Pyrrolidine-3-carboxylic acid {5′-chloro-6-[((R)-2,2-dimethyl-tetrahydro-pyran-4-ylmethyl)-amino]-[2,4′]bipyridinyl-2′-yl}-amide] as the compound, how does the IC50 read?
**A.** 1 nM

**Q.** Which IC50 does the source give for `CC1(C)C[C@@H](CNc2cccc(-c3cc(NC(=O)[C@@H]4CCNC4)ncc3Cl)n2)CCO1` [Example 260, (R)-Pyrrolidine-3-carboxylic acid {5′-chloro-6-[((S)-2,2-dimethyl-tetrahydro-pyran-4-ylmethyl)-amino]-[2,4′]bipyridinyl-2′-yl}-amide] here?
**A.** 1 nM

**Q.** For `COC1(CNc2nc(-c3cc(NC(=O)C4CCC(C)NC4)ncc3Cl)ccc2F)CCOCC1` (stereo not shown) [Example 261, 6-Methyl-piperidine-3-carboxylic acid {5′-chloro-5-fluoro-6-[(4-methoxy-tetrahydro-pyran-4-ylmethyl)-amino]-[2,4′]bipyridinyl-2′-yl}-amide], which IC50 is on record?
**A.** 1 nM

Same assay, conditions: Cdk9_cyclinT1_IC50, generated using one of the two Cdk9/cyclinT1 assays (IMAP or Alpha Screen), not specified per value; ATP 6 uM

**Q.** Which IC50 does the source give for `O=C(Nc1cc(-c2cncc(NCC3CCOCC3)c2)c(Cl)cn1)[C@@H]1CCCNC1` [Example 301, (R)-Piperidine-3-carboxylic acid {5′-chloro-5-[(tetrahydro-pyran-4-ylmethyl)-amino]-[3,4′]bipyridinyl-2′-yl}-amide] here?
**A.** < 8 nM

**Q.** Which IC50 does the source give for `O=C(Nc1cc(-c2cnc(Cl)c(NCC3CCOCC3)c2)c(Cl)cn1)[C@@H]1CCCNC1` [Example 302, (R)-Piperidine-3-carboxylic acid {6,5′-dichloro-5-[(tetrahydro-pyran-4-ylmethyl)-amino]-[3,4′]bipyridinyl-2′-yl}-amide] here?
**A.** < 8 nM

**Q.** Which IC50 does the source give for `CC(C)(C)OC(=O)N1CCC[C@@H](C(=O)Nc2cc(-c3cnc(Cl)c(NCC4CCOCC4)c3)c(Cl)cn2)C1` [Example 303, (R)-3-{6,5′-Dichloro-5-[(tetrahydro-pyran-4-ylmethyl)-amino]-[3,4′]bipyridinyl-2′-ylcarbamoyl}-piperidine-1-carboxylic acid tert-butyl ester] here?
**A.** 25 nM

**Q.** With `CC(C)(C)OC(=O)N1CCC[C@@H](C(=O)Nc2cc(-c3cncc(NCC4CCOCC4)c3)c(Cl)cn2)C1` [Example 304, (R)-3-{5′-Chloro-5-[(tetrahydro-pyran-4-ylmethyl)-amino]-[3,4′]bipyridinyl-2′-ylcarbamoyl}-piperidine-1-carboxylic acid tert-butyl ester] as the compound, how does the IC50 read?
**A.** 81 nM

**Q.** With `O=C(Nc1cc(-c2cccnc2)c(Cl)cn1)[C@@H]1CCCNC1` [Example 305, (R)-Piperidine-3-carboxylic acid (5′-chloro-[3,4′]bipyridinyl-2′-yl)-amide] as the compound, how does the IC50 read?
**A.** 376 nM

**Q.** For `COc1ccncc1-c1cc(NC(=O)[C@@H]2CCCNC2)ncc1Cl` [Example 306, (R)-Piperidine-3-carboxylic acid (5′-chloro-4-methoxy-[3,4′]bipyridinyl-2′-yl)-amide], which IC50 is on record?
**A.** 46 nM

**Q.** `COc1cncc(-c2cc(NC(=O)[C@@H]3CCCNC3)ncc2Cl)c1` [Example 307, (R)-Piperidine-3-carboxylic acid (5′-chloro-5-methoxy-[3,4′]bipyridinyl-2′-yl)-amide] was tested. Which IC50 did it give?
**A.** 239 nM

**Q.** `O=C(Nc1cc(-c2cncc(F)c2)c(Cl)cn1)[C@@H]1CCCNC1` [Example 308, (R)-Piperidine-3-carboxylic acid (5′-chloro-5-fluoro-[3,4′]bipyridinyl-2′-yl)-amide] was tested. Which IC50 did it give?
**A.** 531 nM

**Q.** How did the IC50 turn out when `Cc1ccncc1-c1cc(NC(=O)[C@@H]2CCCNC2)ncc1Cl` [Example 309, (R)-Piperidine-3-carboxylic acid (5′-chloro-4-methyl-[3,4′]bipyridinyl-2′-yl)-amide] was run?
**A.** 627 nM

**Q.** With `Cc1ncc(-c2cc(NC(=O)C(C)C)ncc2Cl)cc1NCC1CCOCC1` [Example 310, N-{5′-Chloro-6-methyl-5-[(tetrahydro-pyran-4-ylmethyl)-amino]-[3,4′]bipyridinyl-2′-yl}-isobutyramide] as the compound, how does the IC50 read?
**A.** 147 nM
